Values of other authors as cited in US20250236629A1, “MEDIUM- OR MACRO-CYCLIC BENZYL-SUBSTITUTED HETEROCYCLE DERIVATIVES AND RELATED USES” (CENTESSA PHARMACEUTICALS (UK) LIMITED, priority 2022, published 2025).
Like-named read-outs stand apart in the source and are kept apart here.

Experiments:
[1] = target: T1, OX2R (Mus musculus, UniProt P58308); conditions: subcutaneous, cited from earlier work
T1 construct: host or cells: mice (WT, orexin-deficient and NT1 models), endogenous receptor in brain
T1 sequence (P58308 1-460): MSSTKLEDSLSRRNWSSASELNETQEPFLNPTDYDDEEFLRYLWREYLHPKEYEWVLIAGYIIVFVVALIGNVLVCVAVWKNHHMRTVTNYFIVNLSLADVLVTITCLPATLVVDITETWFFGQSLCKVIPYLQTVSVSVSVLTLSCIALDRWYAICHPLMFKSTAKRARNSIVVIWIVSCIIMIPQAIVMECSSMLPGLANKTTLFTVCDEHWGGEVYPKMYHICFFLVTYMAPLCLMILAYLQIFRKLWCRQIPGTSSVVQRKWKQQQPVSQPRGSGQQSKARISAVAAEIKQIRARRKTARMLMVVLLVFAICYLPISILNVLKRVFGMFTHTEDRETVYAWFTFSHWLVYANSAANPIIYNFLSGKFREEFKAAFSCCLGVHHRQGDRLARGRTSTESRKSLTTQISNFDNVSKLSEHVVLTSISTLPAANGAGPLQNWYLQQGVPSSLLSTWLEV

[2] = system: individuals with NT1; conditions: initial clinical studies; cited from earlier work

In the case of COC(=O)N1CCC[C@H](NS(C)(=O)=O)[C@@H]1CO[C@H]1CC[C@@H](c2ccccc2)CC1 [TAK-925], the wakefulness ([1]; OX2R-knockout mice) is listed as “not in OX2R-knockout mice”, the wakefulness ([1]; WT mice) is listed as “modestly increased wakefulness” and the cataplexy [2] is listed as “trends for decreasing cataplexy”. The wakefulness [2] was “substantial levels of increased wakefulness”.
